pIC50: −log10 of the molar value.
tested on: DU-145; assay: Cytotoxicity against human DU-145 cells assessed as inhibition of cell growth incubated for 4 days by CCK-8 assay; format: functional, cell-based; conditions: DU-145, 96 h

`C/C=C(/C)C(=O)OC[C@H]1c2c(c(OC(C)=O)c(C)c3c2OCO3)C[C@H]2[C@H]3C4=C(C[C@@H]([C@H](C#N)N12)N3C)C(=O)C(C)=C(OC)C4=O` and `C/C=C(/C)C(=O)OC[C@H]1c2c(c(O)c(C)c3c2OCO3)C[C@H]2[C@H]3C4=C(C[C@@H]([C@H](C#N)N12)N3C)C(=O)C(C)=C(OC)C4=O` are within 0.2 log units of each other in pIC50: 7.49 for the first, 7.30 for the second.

Compared with `COC1=C(C)C(=O)C2=C(C1=O)[C@@H]1[C@@H]3Cc4c(OC(C)=O)c(C)c5c(c4[C@H](CNC(=O)C(C)=O)N3[C@@H](C#N)[C@H](C2)N1C)OCO5`, `COC1=C(C)C(=O)C2=C(C1=O)[C@@H]1[C@@H]3Cc4c(O)c(C)c5c(c4[C@H](CNC(=O)C(C)=O)N3[C@@H](C#N)[C@H](C2)N1C)OCO5` is 1.37 log units lower in pIC50: 8.22 for the first, 6.85 for the second.

Compared with `COC1=C(C)C(=O)C2=C(C1=O)[C@@H]1[C@@H]3CC4=C(C(=O)C(O)=C(C)C4=O)[C@H](CNC(=O)C(C)=O)N3[C@@H](C#N)[C@H](C2)N1C`, `COC1=C(C)C(=O)C2=C(C1=O)[C@@H]1[C@@H]3CC4=C(C(=O)C(OC)=C(C)C4=O)[C@H](CNC(=O)C(C)=O)N3[C@@H](C#N)[C@H](C2)N1C` [SAFRAMYCIN A] is 1.93 log units higher in pIC50: 6.17 for the first, 8.10 for the second. The second is the more potent here.

Compared with `C/C=C(/C)C(=O)OC[C@H]1c2c(c(O)c(C)c3c2OCO3)C[C@H]2CN(C)C[C@H](C#N)N21`, `C/C=C(/C)C(=O)OC[C@H]1C2=C(C[C@H]3CN(C)C[C@H](C#N)N31)C(=O)C(C)=C(OC)C2=O` is higher in pIC50: less than 4.70 for the first, 5.14 for the second. The second is the more potent here.

First: C/C=C(/C)C(=O)OC[C@H]1C2=C(C[C@H]3[C@H]4C5=C(C[C@@H]([C@H](C#N)N13)N4C)C(=O)C(C)=C(OC)C5=O)C(=O)C(C)=C(OC)C2=O [RENIERAMYCIN M]
Second: C/C=C(/C)C(=O)OC[C@H]1C2=C(C[C@H]3[C@H]4C5=C(C[C@@H]([C@H](C#N)N13)N4C)C(=O)C(C)=C(OC)C5=O)C(=O)C(C)=C(O)C2=O [RENIERAMYCIN S]
The pIC50 of the first is 1.26 log units higher: 8.40 for the first, 7.14 for the second.

tested on: HCT-116; assay: Cytotoxicity against human HCT-116 cells assessed as inhibition of cell growth incubated for 4 days by CCK-8 assay; format: functional, cell-based; conditions: HCT-116, 96 h

Compared with `C/C=C(/C)C(=O)OC[C@H]1c2c(c(OC(C)=O)c(C)c3c2OCO3)C[C@H]2[C@H]3C4=C(C[C@@H]([C@H](C#N)N12)N3C)C(=O)C(C)=C(OC)C4=O`, `C/C=C(/C)C(=O)OC[C@H]1c2c(c(O)c(C)c3c2OCO3)C[C@H]2[C@H]3C4=C(C[C@@H]([C@H](C#N)N12)N3C)C(=O)C(C)=C(OC)C4=O` is 0.40 log units lower in pIC50: 7.49 for the first, 7.09 for the second.

Compared with `COC1=C(C)C(=O)C2=C(C1=O)[C@@H]1[C@@H]3Cc4c(OC(C)=O)c(C)c5c(c4[C@H](CNC(=O)C(C)=O)N3[C@@H](C#N)[C@H](C2)N1C)OCO5`, `COC1=C(C)C(=O)C2=C(C1=O)[C@@H]1[C@@H]3Cc4c(O)c(C)c5c(c4[C@H](CNC(=O)C(C)=O)N3[C@@H](C#N)[C@H](C2)N1C)OCO5` is 0.93 log units lower in pIC50: 7.57 for the first, 6.64 for the second. The first is the more potent here.

Going from `COC1=C(C)C(=O)C2=C(C1=O)[C@@H]1[C@@H]3CC4=C(C(=O)C(O)=C(C)C4=O)[C@H](CNC(=O)C(C)=O)N3[C@@H](C#N)[C@H](C2)N1C` to `COC1=C(C)C(=O)C2=C(C1=O)[C@@H]1[C@@H]3CC4=C(C(=O)C(OC)=C(C)C4=O)[C@H](CNC(=O)C(C)=O)N3[C@@H](C#N)[C@H](C2)N1C` [SAFRAMYCIN A], the pIC50 rises from 5.92 to 7.70 (1.78 log units). The second is the more potent here.

First: C/C=C(/C)C(=O)OC[C@H]1c2c(c(O)c(C)c3c2OCO3)C[C@H]2CN(C)C[C@H](C#N)N21
Second: C/C=C(/C)C(=O)OC[C@H]1C2=C(C[C@H]3CN(C)C[C@H](C#N)N31)C(=O)C(C)=C(OC)C2=O
The pIC50 of the first is lower: less than 4.70 for the first, 5.66 for the second. The second is the more potent here.

First: C/C=C(/C)C(=O)OC[C@H]1C2=C(C[C@H]3[C@H]4C5=C(C[C@@H]([C@H](C#N)N13)N4C)C(=O)C(C)=C(OC)C5=O)C(=O)C(C)=C(OC)C2=O [RENIERAMYCIN M]
Second: C/C=C(/C)C(=O)OC[C@H]1C2=C(C[C@H]3[C@H]4C5=C(C[C@@H]([C@H](C#N)N13)N4C)C(=O)C(C)=C(OC)C5=O)C(=O)C(C)=C(O)C2=O [RENIERAMYCIN S]
The pIC50 of the first is 0.94 log units higher: 7.74 for the first, 6.80 for the second. The first is the more potent here.
